Experimental findings from patent US8247609B2, “Aminoacid derivatives containing a disulfanyl group in the form of mixed disulfanyl and aminopeptidase N inhibitors” (Pharamleads, priority 2005, dated 2012) are described below.

A word on the ED50: it is the dose that gives a 50% effect, or the effect in half of the subjects.

In data set [1] the test system is male OF1 mice. Description: Hot plate test (52° C., jump latency) in mice. As to conditions: for ED50: Mus musculus. Type of data set: in vivo, mouse. Here is the method: Hot plate test: this test relates to the licking and jumping reflex in mice on a plate heated at 52° C. (measurement of jump latency in the examples given). The results are expressed in % of maximum possible effect (% MPE), i.e., expressed as a percentage of analgesia, using the following equation:
Maximum latency time=240 seconds.
The results are expressed in term of mean±SEM. The differences observed are considered significant when the values of p are less than 0.05. The test used is an ANOVA test with a multiple comparison test.
Compound 15 is dissolved in a water/mannitol mixture (50 mg/ml). Jump latency times are measured 10 min after the injections by intravenous route.
Compound 15 is dissolved in a ethanol/Cremophor® EL/water mixture. Jump latency times are measured 10 min after intravenous injection.
Compound 15 is dissolved in an ethanol/PEG400/water 10/40/50 mixture.
Compounds 15 and A are dissolved in an ethanol/Cremophor EL/water 10/10/80 mixture. Jump latency times are measured 10 min after intravenous injection.
The analgesia produced by morphine or compound 15 in mice (male OF1) in the hot plate test (52° C.) was measured. Morphine in H2O/NaCl, 9/1000) or compound 15 dissolved in the vehicle EtOH/Cremophor El/water (10/10/80) is injected by IV. The results are measured 10 minutes after injection and latency time is 240 seconds (equation given in examples 15 and 17).
The analgesia produced by Δ^9 THC in mice (male OF1) in the plate hot test (52° C.) was measured. Δ^9 THC, dissolved in the vehicle EtOH/Cremophor EL/water (10/10/80), is injected by IV route. The results are measured 10 minutes after injection and latency time is 240 seconds (equation given in examples 15 and 17).
This test relates to the licking and jumping reflex in mice on a plate heated at 52° C. The results are expressed in % of maximum possible effect (% MPE), i.e., expressed as a percentage of analgesia, using the following equation:
Maximum latency time=240 s.
The mice weigh 25-30 grams.
Jump latency is measured 10 minutes after intravenous injection.

Data set [2] concerns male OF1 mice. As to the kind of experiment: Hot plate test (52° C., jump latency) in mice. Type of data set: in vivo, mouse. The conditions noted are these: after administration per os of 200 m/kg (FIG. 2b). For orientation: Thermal pain tests record how soon the animal reacts.
For data set [3], the system named is mice inoculated in their right paw with NCTC 2472 cells. Description: Osteosarcoma-induced thermal hyperalgesia, unilateral hot plate test. Type of data set: in vivo, mouse. The text has this:
The comparison and possible facilitation of compound 15 analgesic effect by Gabapentin was investigated on the animal model of bone cancer induced by intraosteal inoculation of NCTC2472 tumor cells (Honoré P. et al., Neuroscience 98 (2000), 585-588 Mendez L. et al. J. Neurosci. Methods 113 (2002), 91-97).
The methods used to measure the analgenisc effects (antihyperalgesia and allodynia) of various compounds of this animal model have been described in details and are used (Menendez L. et al. Brain Res. 969 (2003), 102-109) in these series of experiments.
Osteosarcoma-induced thermal hyperalgesia measured by the unilateral hot plate test was inhibited by the oral administration of compound 15 (25 mg/kg). This inhibitory effect peaked 20-40 min after compound 15 administration, disappearing at time 60 (FIG. 4A).
At this concentration the antagonist is unable to enter the brain supporting a peripheral analgesic effects of compound 15. ** p≦0.01. […]

A short description of data set [4]: Solubility in solvents. It counts as physicochemical.
The subject of data set [5] is rat (male Sprague Dawley) with an inflamed paw. Description: Vocalization threshold on paw pressure, carrageenan-inflamed paw. Type of data set: in vivo. The conditions noted are these: 100 mg/kg per os, 180 min after carrageenan, measured 20 min after administration. Here is the method: b) Antinociceptive effect of compound 15 (100 mg/kg par os) on vocalization threshold when pressure is applied to the paw of a rat (male Sprague Dawley) with an inflamed paw, inflammation being induced by intraplantar injection of carrageenan.
Compound 15 and a vehicle (ethanol/polyethylene glycol (PEG) 400/water, 10/40/50) are administered 180 min after intraplantar injection of carrageenan (1% in saline solution).
The baseline for vocalization threshold when pressure is applied to the paw is measured before inflammation (B) and for the inflamed paw 20 min after injection of compound 15 or the vehicle. The results are given in table 3 and are expressed as mean±SEM, n=10. The differences observed are considered significant when the values of p are less than 0.05.
For orientation: Carrageenan injected into the paw causes an acute inflammation.

Like-named read-outs stand apart in the source and are kept apart here.

Take `CCOC(=O)OC(C)OC(=O)CNC(=O)C(CSSC[C@@H](N)CCSC)Cc1ccccc1` (stereo partly shown) [Compound 15]: the “% analgesia” value in data set [1] (1 mg/kg IV, 10 min after injection (Table 6)) was found to be 46.4 ± 5.6 %; in data set [1] (2.5 mg/kg IV, 10 min after injection (Table 6)) it was 56.3 ± 6.9 %; in data set [1] (2.5 mg/kg IV, ethanol/Cremophor EL/water, 10 min after injection), 56.2 ± 6.9 %; in data set [1] (2.5 mg/kg IV, ethanol/Tween 20/water, 10 min after injection), 48.4 ± 10.2 %; in data set [1] (2.5 mg/kg IV, ethanol/Tween 80/water, 10 min after injection) it was 44.7 ± 6.2 %; in data set [1] (5 mg/kg IV, 10 min after injection (Table 6)) it was 87.6 ± 4.6 %. For the same molecule, the “% analgesia” value in data set [1] (5 mg/kg IV, ethanol/Cremophor EL/water 10/10/80, 10 min after injection (Table 5)) is listed as 87.6 ± 4.6 %; in data set [1] (10 mg/kg IV, water/mannitol vehicle, 10 min after injection, male mice), 33.4 ± 7.5 %; in data set [1] (20 mg/kg IV, water/mannitol vehicle, 10 min after injection, male mice) it was 59.2 ± 9.6 %; in data set [1] (40 mg/kg IV, water/mannitol vehicle, 10 min after injection, male mice) it was 90.2 ± 7.0 %. The ED50 in data set [1] (10 min, IV, ethanol/Cremophor EL/water, 10 min after injection (FIG. 1), read-out: ED50 (analgesic response)) was 1.9 ± 0.4 mg/kg; in data set [1] (10 min, IV, water/mannitol vehicle, 10 min after injection, read-out: Effective dose 50, ED50), 16.1 mg/kg; in data set [1] (per os 20 min before test, ethanol/PEG400/water 10/40/50 (FIG. 2a), read-out: ED50 (analgesic effect)), 135 mg/kg. The “Persistence of analgesic effect” value in data set [2] is reported as “at least two hours”. Besides, in data set [3] (25 mg/kg oral), the “Time at which inhibitory effect disappears” value worked out at 60. The “Time of peak inhibitory effect after administration” value in data set [3] (25 mg/kg oral) was in the range of 20 to 40 min. Further, in data set [3] (25 mg/kg oral (FIG. 4A)), the Osteosarcoma-induced thermal hyperalgesia entry is listed as “inhibited”. The “Antihyperalgesic effect in presence of naloxone-methiodide” value in data set [3] (25 mg/kg p.o. 20 min before testing, naloxone-methiodide 2 mg/kg i.p. 20 min before testing (FIG. 5)) is on record as “completely inhibited”. Also, the “Effect on thermal latencies, inoculated versus control paws” value in data set [3] (25 mg/kg p.o., 20 min after administration (FIG. 4B)) is “exclusively increases the latencies measured in the inoculated right paws”. Further, the “Antihyperalgesic effect when administered alone” value in data set [3] (compound 15 12.5 mg/kg 20 min before testing, or Gabapentin 6.25 mg/kg 60 min before testing) is reported as “do not produce any antihyperalgesic effect”. For the same molecule, in data set [4], the “Solubility in ethanol/Tween®/water solvents” value is listed as “soluble”. Moreover, the Vocalization threshold in data set [5] stood at 292.5 ± 20.1 g.
